Experimental data reported in patent publication US20080269202A1, “Novel 2,3-benzodiazepine derivatives and their use as antipsychotic agents” (Teva Pharmaceutical Industries Ltd., priority 2007, published 2008).
Structures can show the parent of a compound that is named as a salt.

Compound	melting point [°C]
CNC(=O)N1N=C(c2ccc(N)cc2)c2cc(OC)c(OC)cc2C[C@@H]1C	130 to 134
CNC(=O)N1N=C(c2ccc(N)c(C)c2)c2cc(OC)c(OC)cc2C[C@@H]1C	157 to 159
CNC(=O)N1N=C(c2cc(C)c(N)c(C)c2)c2cc(OC)c(OC)cc2C[C@H]1C	110 to 113
CCNC(=O)N1N=C(c2ccc(N)cc2)c2cc(OC)c(OC)cc2C[C@H]1C	122 to 124
CCNC(=O)N1N=C(c2ccc(N)c(C)c2)c2cc(OC)c(OC)cc2C[C@H]1C	107 to 110
CCCNC(=O)N1N=C(c2ccc(N)cc2)c2cc(OC)c(OC)cc2C[C@H]1C	101 to 104
CCCNC(=O)N1N=C(c2ccc(N)c(C)c2)c2cc(OC)c(OC)cc2C[C@H]1C	92 to 95
COc1cc2c(cc1OC)C(c1ccc(N)c(C)c1)=NN(C(=O)NC(C)C)[C@H](C)C2	115 to 117
COc1cc2c(cc1OC)C(c1ccc(N)cc1)=NN(C(=O)NC1CC1)[C@H](C)C2	116 to 119
COc1cc2c(cc1OC)C(c1ccc(N)c(C)c1)=NN(C(=O)NC1CC1)[C@H](C)C2	112 to 114
COc1cc2c(cc1OC)C(c1ccc(N)cc1)=NN(C(=O)N(C)C)[C@H](C)C2	258 to 260
CNC(=O)N1N=C(c2ccccc2[N+](=O)[O-])c2cc(OC)c(OC)cc2CC1C (stereo not drawn)	174 to 176
CNC(=O)N1N=C(c2cccc([N+](=O)[O-])c2)c2cc(OC)c(OC)cc2CC1C (stereo not drawn)	83 to 85
CNC(=O)N1N=C(c2cccc(Cl)c2)c2cc(OC)c(OC)cc2CC1C (stereo not drawn)	90 to 91
CNC(=O)N1N=C(c2ccc(Cl)cc2)c2cc(OC)c(OC)cc2CC1C (stereo not drawn)	164 to 166
CNC(=O)N1N=C(c2ccc(F)cc2)c2cc(OC)c(OC)cc2CC1C (stereo not drawn)	80 to 83
COc1cc2c(cc1OC)C(c1ccc([N+](=O)[O-])cc1)=NN(C(=O)N(C)C)C(C)C2 (stereo not drawn)	92 to 96
CNC(=O)N1N=C(c2ccccc2)c2cc(OC)c(OC)cc2CC1C (stereo not drawn)	86 to 88

Compound	melting point [°C]
CNC(=O)N1N=C(c2ccc(OC)c(OC)c2)c2cc(OC)c(OC)cc2CC1C (stereo not drawn)	185 to 186
CNC(=O)N1N=C(c2ccc(N)cc2)c2cc(OC)c(OC)cc2CC1C (racemic)	105 to 107
CNC(=O)N1N=C(c2cccc(N)c2)c2cc(OC)c(OC)cc2CC1C (racemic)	103 to 108
CNC(=O)N1N=C(c2ccccc2N)c2cc(OC)c(OC)cc2CC1C (racemic)	88 to 91
CCNC(=O)N1N=C(c2ccc(N)cc2)c2cc(OC)c(OC)cc2CC1C (racemic)	169 to 170
COc1cc2c(cc1OC)C(c1ccc(N)cc1)=NN(C(=O)NC(C)C)C(C)C2 (racemic)	109 to 111
COc1cc2c(cc1OC)C(c1ccc(N)cc1)=NN(C(=O)NC1CC1)C(C)C2 (racemic)	120 to 123
CCCCNC(=O)N1N=C(c2ccc(N)cc2)c2cc(OC)c(OC)cc2CC1C (racemic)	204 to 207
CNC(=O)N1N=C(c2ccc(N)c(C)c2)c2cc(OC)c(OC)cc2CC1C (racemic)	119 to 122
CNC(=O)N1N=C(c2ccc(N)c(Cl)c2)c2cc(OC)c(OC)cc2CC1C (racemic)	119 to 120
CNC(=S)N1N=C(c2ccc(N)cc2)c2cc(OC)c(OC)cc2CC1C (racemic)	235 to 237
CNC(=O)N1N=C(c2ccc([N+](=O)[O-])c(Cl)c2)c2cc(OC)c(OC)cc2CC1C (stereo not drawn) [75]	194 to 195
CNC(=O)N1N=C(c2ccc([N+](=O)[O-])c(Cl)c2)c2cc(OC)c(OC)cc2CC1C (stereo not drawn) [76]	195 to 197
CCNC(=O)N1N=C(c2ccc([N+](=O)[O-])cc2)c2cc(OC)c(OC)cc2CC1C (stereo not drawn) [78]	206 to 208
CCNC(=O)N1N=C(c2ccc([N+](=O)[O-])cc2)c2cc(OC)c(OC)cc2CC1C (stereo not drawn) [79]	186 to 189
COc1cc2c(cc1OC)C(c1ccc([N+](=O)[O-])cc1)=NN(c1nccs1)C(C)C2 (stereo not drawn) [Example 1]	195 to 197
COc1cc2c(cc1OC)C(c1ccc([N+](=O)[O-])cc1)=NN(c1nccs1)C(C)C2 (stereo not drawn) [Example 2]	151 to 152
COc1cc2c(cc1OC)C(c1ccc([N+](=O)[O-])c(C)c1)=NN(c1nccs1)C(C)C2 (stereo not drawn) [Example 3]	145 to 147

Further lines, results first:

melting point [°C]	Compound
174 to 176	COc1cc2c(cc1OC)C(c1cccc(Cl)c1)=NN(c1nc(C)c(C)s1)C(C)C2 (stereo not drawn) (as salt: HCl) [Example 11]
119 to 122	COc1cc2c(cc1OC)C(c1ccc(N)cc1)=NN(c1nccs1)C(C)C2 (racemic) [Example 136]
122 to 124	COc1cc2c(cc1OC)C(c1ccc(N)cc1)=NN(c1nc(C)cs1)C(C)C2 (racemic) [Example 137]
120 to 122	COc1cc2c(cc1OC)C(c1ccc(N)cc1)=NN(c1ncc(C)s1)C(C)C2 (racemic) [Example 138]
121 to 124	COc1cc2c(cc1OC)C(c1ccc(N)cc1)=NN(c1nc(C)c(C)s1)C(C)C2 (racemic) [Example 139]
109 to 113	COc1cc2c(cc1OC)C(c1ccc(N)c(C)c1)=NN(c1nccs1)C(C)C2 (racemic) [Example 140]
121 to 123	COc1cc2c(cc1OC)C(c1ccc(N)cc1)=NN(C1=NCCS1)C(C)C2 (racemic) [Example 141]
166 to 168	COc1cc2c(cc1OC)C(c1ccc(N)cc1)=NN(C1=NC(=O)CS1)C(C)C2 (racemic) [Example 142]
184 to 188	COc1cc2c(cc1OC)C(c1ccc(N)cc1)=NN(C1=NC(=O)C(C)S1)C(C)C2 (racemic) [Example 143]
152 to 153	COc1cc2c(cc1OC)C(c1ccc(N)cc1)=NN(c1nncs1)C(C)C2 (racemic) [Example 144]
220 to 222	COc1cc2c(cc1OC)C(c1ccc(N)cc1)=NN(c1nnc(C)s1)C(C)C2 (racemic) [Example 145]
208 to 209	CCc1nnc(N2N=C(c3ccc(N)cc3)c3cc(OC)c(OC)cc3CC2C)s1 (racemic) [Example 146]
108 to 110	COc1cc2c(cc1OC)C(c1ccc(N)c(C)c1)=NN(c1nncs1)C(C)C2 (racemic) [Example 147]
125 to 130	COc1cc2c(cc1OC)C(c1ccc(N)c(Cl)c1)=NN(c1nncs1)C(C)C2 (racemic) [Example 148]
108 to 113	CCOc1cc2c(cc1OCC)C(c1ccc(N)cc1)=NN(c1nncs1)C(C)C2 (racemic) [Example 149]
100 to 105	COc1cc2c(cc1OC)C(c1ccc(N)cc1)=NN(c1nnco1)C(C)C2 (racemic) [Example 150]
209 to 211	COc1cc2c(cc1OC)C(c1ccc(N)cc1)=NN(c1nnc(C)o1)C(C)C2 (racemic) [Example 151]
260 to 262	COc1cc2c(cc1OC)C(c1ccc(N)cc1)=NN(c1nc(=O)n(C)s1)C(C)C2 (racemic) [Example 152]
135 to 137	COc1cc2c(cc1OC)C(c1ccc(N)cc1)=NN(C1=NCCO1)C(C)C2 (racemic) [Example 153]
159 to 163	COc1cc2c(cc1OC)C(c1ccc(N)cc1)=NN(C1=NNC(=O)CS1)C(C)C2 (racemic) [Example 154]

melting point [°C]	Compound
227 to 229	COc1cc2c(cc1OC)C(c1ccc(N)cc1)=NN(c1ncon1)C(C)C2 (racemic) [Example 155]
233 to 236	COc1cc2c(cc1OC)C(c1ccc(N)cc1)=NN(c1noc(C)n1)C(C)C2 (racemic) [Example 156]
234 to 237	COc1cc2c(cc1OC)C(c1ccc(N)c(C)c1)=NN(c1ncon1)C(C)C2 (racemic) [Example 157]
232 to 235	COc1cc2c(cc1OC)C(c1ccc(N)c(Cl)c1)=NN(c1ncon1)C(C)C2 (racemic) [Example 158]
158 to 162	CCOc1cc2c(cc1OCC)C(c1ccc(N)cc1)=NN(c1ncon1)C(C)C2 (racemic) [Example 159]
103 to 107	COc1cc2c(cc1OC)C(c1ccc(N)cc1)=NN(c1ncc(C)o1)C(C)C2 (racemic) [Example 161]
152 to 155	COc1cc2c(cc1OC)C(c1ccc(N)cc1)=NN(c1ncn[nH]1)C(C)C2 (racemic) [Example 162]
164 to 167	COc1cc2c(cc1OC)C(c1ccc(N)cc1)=NN(c1nc(C)n[nH]1)C(C)C2 (racemic) [Example 163]
160 to 162	COc1cc2c(cc1OC)C(c1ccc(N)cc1)=NN(c1ncnn1C)C(C)C2 (racemic) [Example 164]
203 to 205	COc1cc2c(cc1OC)C(c1ccc(N)cc1)=NN(c1ncn(C)n1)C(C)C2 (racemic) [Example 165]
243 to 246	COc1cc2c(cc1OC)C(c1ccc(N)cc1)=NN(c1nc(C)n(C)n1)C(C)C2 (racemic) [Example 166]
113 to 115	COc1cc2c(cc1OC)C(c1ccc(N)cc1)=NN(c1nc(C)nn1C)C(C)C2 (racemic) [Example 167]
124 to 127	COc1cc2c(cc1OC)C(c1ccc(N)cc1)=NN(C(=O)N1CCOCC1)C(C)C2 (racemic) [Example 177]
129 to 132	COc1cc2c(cc1OC)C(c1ccc(N)cc1)=NN(C(=O)N1CCCCC1)C(C)C2 (racemic) [Example 178]
173 to 174	CONC(=O)N1N=C(c2ccc(N)cc2)c2cc(OC)c(OC)cc2CC1C (racemic) [Example 179]
172 to 174	COc1cc2c(cc1OC)C(c1ccc([N+](=O)[O-])c(C)c1)=NN(c1nccs1)C(C)C2 (stereo not drawn) [Example 4]
168 to 169	COc1cc2c(cc1OC)C(c1ccc([N+](=O)[O-])c(Cl)c1)=NN(c1nccs1)C(C)C2 (stereo not drawn) [Example 5]
194 to 195	COc1cc2c(cc1OC)C(c1ccc([N+](=O)[O-])cc1)=NN(c1nc(C)cs1)C(C)C2 (stereo not drawn) [Example 6]
122 to 123	COc1cc2c(cc1OC)C(c1ccc([N+](=O)[O-])cc1)=NN(c1ncc(C)s1)C(C)C2 (stereo not drawn) [Example 7]
